From patent publication US12269831B2, “Modulators of cystic fibrosis transmembrane conductance regulator” (Vertex Pharmaceuticals Incorporated, priority 2020, dated 2025) come the findings set out here.

pEC50: −log10 of the molar value.

For this assay, the target named is T1, CFTR (F508del/MF-HBE cells) (Homo sapiens, UniProt P13569, DEL508-508).
T1 construct: human bronchial epithelial (HBE) cells derived from CF subjects heterozygous for F508del and a minimal function CFTR mutation (F508del/MF-HBE); endogenous in cells; host or cells: primary human bronchial epithelial (HBE) cells from CF subjects, genotype F508del/minimal function
As to the kind of experiment: Ussing chamber assay of CFTR-mediated short-circuit currents (potentiator identification). The assay is classed as cell-based. The following applies: CFTR-mediated Isc, 18-24 h incubation at 37° C. with 10 μM (14S)-8-[3-(2-{dispiro[2.0.2.1]heptan-7-yl}ethoxy)-1H-pyrazol-1-yl]-... corrector, 20% human serum. Here is the method: Ussing Chamber Assay of CFTR-Mediated Short-Circuit Currents
Ussing chamber experiments were performed using human bronchial epithelial (HBE) cells derived from CF subjects heterozygous for F508del and a minimal function CFTR mutation (F508del/MF-HBE) and cultured as previously described (Neuberger T, Burton B, Clark H, Van Goor F Methods Mol Biol 2011:741:39-54). After four days the apical media was removed, and the cells were grown at an air liquid interface for >14 days prior to use.
To isolate the CFTR-mediated short-circuit (Isc) current, F508del/MF-HBE grown on Costar® Snapwell™ cell culture inserts were mounted in an Ussing chamber and the transepithelial ISC was measured under voltage-clamp recording conditions (Vhold=0 mV) at 37° C. The basolateral solution contained (in mM) 145 NaCl, 0.83 K2HPO4, 3.3 KH2PO4, 1.2 MgCl2, 1.2 CaCl2, 10 Glucose, 10 HEPES (pH adjusted to 7.4 with NaOH) and the apical solution contained (in mM) 145 NaGluconate, 1.2 MgCl2, 1.2 CaCl2, 10 glucose, 10 HEPES (pH adjusted to 7.4 with NaOH) and 30 μM amiloride to block the epithelial sodium channel. Forskolin (20 μM) was added to the apical surface to activate CFTR, followed by apical addition of a CFTR inhibitor cocktail consisting of BPO, GlyH-101 and CFTR inhibitor 172 (each at 20 μM final assay concentration) to specifically isolate CFTR currents. The CFTR-mediated Isc (μA/cm^2) for each condition was determined from the peak forskolin response to the steady-state current following inhibition.
Identification of Potentiator Compounds
The activity of the CFTR potentiator compounds on the CFTR-mediated Isc was determined in Ussing chamber studies as described above. The F508del/MF-HBE cell cultures were incubated with the potentiator compounds at a range of concentrations in combination with 10 μM (14S)-8-[3-(2-{dispiro[2.0.2.1]heptan-7-yl}ethoxy)-1H-pyrazol-1-yl]-12,12-dimethyl-2λ^6-thia-3,9,11,18,23-pentaazatetracyclo[17.3.1.111,14.05,10]tetracosa-1(22),5,7,9,19(23),20-hexaene-2,2,4-trione for 18-24 hours at 37° C. and in the presence of 20% human serum. The concentration of potentiator compounds and (14S)-8-[3-(2-{dispiro[2.0.2.1]heptan-7-yl}ethoxy)-1H-pyrazol-1-yl]-12,12-dimethyl-2λ^6-thia-3,9,11,18,23-pentaazatetracyclo[17.3.1.111,14.05,10]tetracosa-1(22),5,7,9,19(23),20-hexaene-2,2,4-trione used during the 18-24 hours incubations was kept constant throughout the Ussing chamber measurement of the CFTR-mediated Isc to ensure compounds were present throughout the entire experiment. The efficacy and potency of the putative F508del potentiators was compared to that of the known Vertex potentiator, ivacaftor (N-[2,4-bis(1,1-dimethylethyl)-5-hydroxyphenyl]-1,4-dihydro-4-oxoquinoline-3-carboxamide).

T1 sequence (P13569 with tags, fused parts or gaps DEL508-508): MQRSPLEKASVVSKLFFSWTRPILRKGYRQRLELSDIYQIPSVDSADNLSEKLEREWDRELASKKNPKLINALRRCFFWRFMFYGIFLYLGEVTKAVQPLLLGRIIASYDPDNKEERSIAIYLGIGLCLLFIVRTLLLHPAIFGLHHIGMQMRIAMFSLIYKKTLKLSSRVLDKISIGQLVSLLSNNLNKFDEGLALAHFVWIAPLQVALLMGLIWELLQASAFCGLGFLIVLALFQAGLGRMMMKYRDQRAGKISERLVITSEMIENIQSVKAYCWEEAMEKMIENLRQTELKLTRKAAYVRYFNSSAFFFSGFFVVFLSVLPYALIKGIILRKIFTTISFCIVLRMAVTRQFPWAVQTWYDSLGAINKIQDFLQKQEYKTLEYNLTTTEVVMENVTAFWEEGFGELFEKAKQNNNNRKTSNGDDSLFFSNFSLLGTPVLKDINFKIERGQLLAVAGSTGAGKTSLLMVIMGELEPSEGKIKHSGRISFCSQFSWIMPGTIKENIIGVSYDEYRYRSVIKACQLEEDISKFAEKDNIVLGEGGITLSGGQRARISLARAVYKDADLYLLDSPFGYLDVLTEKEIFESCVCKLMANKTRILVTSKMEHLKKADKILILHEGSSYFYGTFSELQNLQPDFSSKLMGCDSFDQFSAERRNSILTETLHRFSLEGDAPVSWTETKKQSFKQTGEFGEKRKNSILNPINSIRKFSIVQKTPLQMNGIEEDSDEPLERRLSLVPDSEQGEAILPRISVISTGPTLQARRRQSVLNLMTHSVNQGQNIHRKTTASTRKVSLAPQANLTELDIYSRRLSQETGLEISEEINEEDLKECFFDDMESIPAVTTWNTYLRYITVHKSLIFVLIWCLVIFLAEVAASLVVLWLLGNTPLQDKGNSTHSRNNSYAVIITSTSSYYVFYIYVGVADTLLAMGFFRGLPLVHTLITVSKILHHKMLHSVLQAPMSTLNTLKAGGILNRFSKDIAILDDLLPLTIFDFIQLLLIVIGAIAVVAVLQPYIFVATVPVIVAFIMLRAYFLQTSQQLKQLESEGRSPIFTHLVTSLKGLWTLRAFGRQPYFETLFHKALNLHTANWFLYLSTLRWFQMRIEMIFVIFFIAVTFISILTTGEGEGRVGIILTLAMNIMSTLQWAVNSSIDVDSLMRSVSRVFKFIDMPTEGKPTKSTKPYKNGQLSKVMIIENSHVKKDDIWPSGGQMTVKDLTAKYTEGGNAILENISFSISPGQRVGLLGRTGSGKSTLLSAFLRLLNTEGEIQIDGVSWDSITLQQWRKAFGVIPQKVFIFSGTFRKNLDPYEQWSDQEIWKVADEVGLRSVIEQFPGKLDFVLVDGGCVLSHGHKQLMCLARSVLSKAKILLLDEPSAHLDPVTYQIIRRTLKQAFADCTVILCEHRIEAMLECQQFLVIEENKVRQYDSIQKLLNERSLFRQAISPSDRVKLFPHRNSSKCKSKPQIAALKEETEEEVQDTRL

For orientation: pEC50 means the negative decadic logarithm of the EC50, by convention in mol/L. For `C[C@@H]1CCCCC[C@](O)(C(F)(F)F)C2=NN=C(O2)c2nc(c(C(F)(F)F)cc2N)O1` [Compound 11, (6R,12R)-17-amino-12-methyl-6,15-bis(trifluoromethyl)-13,19-dioxa-3,4,18-triazatricyclo[12.3.1.12,5]nonadeca-1(18),2,4,14,16-pentaen-6-ol], the pEC50 was greater than 6.30.

Regarding `Nc1cc(C(F)(F)F)c2nc1-c1nnc(o1)C(O)(C(F)(F)F)CCCCc1cccc(c1)O2` (single isomer, unassigned) [Compound 27, 20-amino-6,18-bis(trifluoromethyl)-16,23-dioxa-3,4,21-triazatetracyclo[15.3.1.12,5.111,15]tricosa-1(21),2,4,11(22),12,14,17,19-octaen-6-ol], the pEC50 was greater than 6.30. For `C[C@@H]1CCCCC(O)C(O)(C(F)(F)F)C2=NN=C(O2)c2nc(c(C(F)(F)F)cc2N)O1` (single isomer, unassigned) [Compound 56], the negative-log EC50 (pEC50) is less than 6.00. As for `Nc1cc(C(F)(F)F)c2nc1-c1nnc(o1)[C@@](O)(C(F)(F)F)CCCCCC(CC1CC1)O2` (single isomer, unassigned) [Compound 47], the figure is greater than 6.30; as for `Nc1cc(C(F)(F)F)c2nc1-c1nnc(o1)[C@@](O)(C(F)(F)F)CCCCCC(CC1CC1)O2` (single isomer, unassigned) [Compound 48], greater than 6.30; as for `Nc1cc(C(F)(F)F)c2nc1-c1nnc(o1)[C@@](O)(C(F)(F)F)CCCCCCO2` [Compound 5, (6R)-17-amino-6,15-bis(trifluoromethyl)-13,19-dioxa-3,4,18-triazatricyclo[12.3.1.12,5]nonadeca-1(18),2,4,14,16-pentaen-6-ol], greater than 6.30. Consider `Nc1cc(C(F)(F)F)c2nc1-c1nnc(o1)[C@@](O)(C(F)(F)F)CCCCCC(Cc1ccc(F)cc1)O2` (single isomer, unassigned) [Compound 49], for which the pEC50 was greater than 6.30.

On to `Nc1cc(C(F)(F)F)c2nc1-c1nnc(o1)C(O)(C(F)(F)F)CCCCCS2(=O)=O` (single isomer, unassigned) [Compound 15, 16-amino-12,12-dioxo-6,14-bis(trifluoromethyl)-18-oxa-12λ^6-thia-3,4,17-triazatricyclo[11.3.1.12,5]octadeca-1(17),2,4,13,15-pentaen-6-ol], for which the pEC50 is greater than 6.30.

For the compound `Nc1cc(C(F)(F)F)c2nc1-c1nnc(o1)[C@@](O)(C(F)(F)F)CCCCC[C@@H](CO)O2` [Compound 37, (6R,12S)-17-amino-12-(hydroxymethyl)-6,15-bis(trifluoromethyl)-13,19-dioxa-3,4,18-triazatricyclo[12.3.1.12,5]nonadeca-1(18),2,4,14,16-pentaen-6-ol], the pEC50 was greater than 6.30. Consider `CC1(C)CCCC[C@](O)(C(F)(F)F)C2=NN=C(O2)c2nc(c(C(F)(F)F)cc2N)OC1` [Compound 61, (6R)-17-amino-11,11-dimethyl-6,15-bis(trifluoromethyl)-13,19-dioxa-3,4,18-triazatricyclo[12.3.1.12,5]nonadeca-1(18),2,4,14,16-pentaen-6-ol], for which the pEC50 is greater than 6.30. On to `C[C@@H]1CC2CC2CC[C@](O)(C(F)(F)F)C2=NN=C(O2)c2nc(c(C(F)(F)F)cc2N)O1` (single isomer, unassigned) [Compound 64], for which the pEC50 was greater than 6.30. As for `OC1(C(F)(F)F)CCCCCCOc2nc(ccc2C(F)(F)F)C2=NN=C1O2` (racemic) [Compound 1, 6,15-bis(trifluoromethyl)-13,19-dioxa-3,4,18-triazatricyclo[12.3.1.12,5]nonadeca-1(17),2,4,14(18),15-pentaen-6-ol], the figure is less than 6.00; as for `Nc1cc(C(F)(F)F)c2nc1-c1nnc(o1)[C@@](O)(C(F)(F)F)CCCCCC(Cc1ccc(F)cc1)O2` (single isomer, unassigned) [Compound 50], greater than 6.30; as for `Nc1cc(C(F)(F)F)c2nc1-c1nnc(o1)C(O)(C(F)(F)F)CCCCc1cccc(c1)O2` (single isomer, unassigned) [Compound 28, 20-amino-6,18-bis(trifluoromethyl)-16,23-dioxa-3,4,21-triazatetracyclo[15.3.1.12,5.111,15]tricosa-1(21),2,4,11(22),12,14,17,19-octaen-6-ol], less than 6.00. Under `C[C@@H]1CCC(O)CC[C@](O)(C(F)(F)F)C2=NN=C(O2)c2nc(c(C(F)(F)F)cc2N)O1` (single isomer, unassigned) [Compound 45] stands greater than 6.30. With `[2H]C1CC[C@](O)(C(F)(F)F)C2=NN=C(O2)c2nc(c(C(F)(F)F)cc2N)O[C@H](C)CC1[2H]` (stereo partly drawn) [Compound 38, (6R,12R)-17-amino-9,10-dideuterio-12-methyl-6,15-bis(trifluoromethyl)-13,19-dioxa-3,4,18-triazatricyclo[12.3.1.12,5]nonadeca-1(18),2,4,14,16-pentaen-6-ol], the pEC50 was greater than 6.30.

Take `Nc1cc(C(F)(F)F)c2nc1-c1nnc(o1)[C@@](O)(C(F)(F)F)CCCCCCS2(=O)=O` (single isomer, unassigned) [Compound 9]: the pEC50 is greater than 6.30. Under `Nc1cc(C(F)(F)F)c2nc1-c1nnc(o1)[C@](O)(C(F)(F)F)CCCCCCO2` [Compound 6, (6S)-17-amino-6,15-bis(trifluoromethyl)-13,19-dioxa-3,4,18-triazatricyclo[12.3.1.12,5]nonadeca-1(18),2,4,14,16-pentaen-6-ol] stands less than 6.00; under `Nc1cc(C(F)(F)F)c2nc1-c1nnc(o1)C(O)(C(F)(F)F)CCCCc1cc(F)cc(c1)O2` (single isomer, unassigned) [Compound 31, 20-amino-13-fluoro-6,18-bis(trifluoromethyl)-16,23-dioxa-3,4,21-triazatetracyclo[15.3.1.12,5.111,15]tricosa-1(21),2,4,11(22),12,14,17,19-octaen-6-ol], greater than 6.30.

Consider `CC(C)C1CCCCC[C@](O)(C(F)(F)F)C2=NN=C(O2)c2nc(c(C(F)(F)F)cc2N)O1` (single isomer, unassigned) [Compound 35], for which the pEC50 is greater than 6.30. Under `C[C@@H]1CC(O)CCC[C@](O)(C(F)(F)F)C2=NN=C(O2)c2nc(c(C(F)(F)F)cc2N)O1` (single isomer, unassigned) [Compound 46] stands greater than 6.30; under `C[C@@H]1COCCC[C@](O)(C(F)(F)F)C2=NN=C(O2)c2nc(c(C(F)(F)F)cc2N)O1` [Compound 59, (6R,12R)-17-amino-12-methyl-6,15-bis(trifluoromethyl)-10,13,19-trioxa-3,4,18-triazatricyclo[12.3.1.12,5]nonadeca-1(18),2,4,14,16-pentaen-6-ol], less than 6.00. As for `OC1(C(F)(F)F)CCCCCCOc2nc(ccc2C(F)(F)F)C2=NN=C1O2` (single isomer, unassigned) [Compound 3, 6,15-bis(trifluoromethyl)-13,19-dioxa-3,4,18-triazatricyclo[12.3.1.12,5]nonadeca-1(17),2,4,14(18),15-pentaen-6-ol], the figure is less than 6.00. Turning to `C[C@H]1CCCCC[C@@](O)(C(F)(F)F)C2=NN=C(O2)c2nc(c(C(F)(F)F)cc2N)O1` [Compound 13, (6S,12S)-17-amino-12-methyl-6,15-bis(trifluoromethyl)-13,19-dioxa-3,4,18-triazatricyclo[12.3.1.12,5]nonadeca-1(18),2,4,14,16-pentaen-6-ol], the negative-log EC50 (pEC50) is greater than 6.30.

As to `Nc1cc(C(F)(F)F)c2nc1-c1nnc(o1)C(O)(C(F)(F)F)CCCCc1cc(F)cc(c1)O2` (single isomer, unassigned) [Compound 32, 20-amino-13-fluoro-6,18-bis(trifluoromethyl)-16,23-dioxa-3,4,21-triazatetracyclo[15.3.1.12,5.111,15]tricosa-1(21),2,4,11(22),12,14,17,19-octaen-6-ol], the pEC50 was less than 6.00. As to `CC(C)(C)c1cccc(CC2CCCCC[C@](O)(C(F)(F)F)C3=NN=C(O3)c3nc(c(C(F)(F)F)cc3N)O2)c1` (single isomer, unassigned) [Compound 51], the pEC50 was greater than 6.30.
